Measurements taken from US10940139B2, “Compounds that interact with the Ras superfamily for the treatment of cancers, inflammatory diseases, rasopathies, and fibrotic disease” (Shy Therapeutics LLC, priority 2017, dated 2021).

System: MIA-PACA2 pancreatic cancer cell lines
Test: Cell proliferation assay, alternate assay conditions (DAPI fluorescence)
Type: cell-based
Conditions: Homo sapiens, MIA PaCa-2; for inhibition at 10 µM: * = tested at 10 μM, alternate conditions, MIA-PACA2; for IC50: MIA-PACA2, same assay as the % inhibition (alternate conditions)
Method: Cell lines: Tumor-derived pancreatic cancer cell lines MIA-PACA2 were purchased from ATCC and grown in complete DMEM-High Glucose medium supplemented with penicillin (100 U/mL), streptomycin (100 μg/mL), and 10% heat-inactivated FBS at 37° C. in a humidified incubator with 5% CO2.
Method: Cells are plated at 4000 cells/well density in 96-wells plate. The next day tested small molecules are added to the cells in the final concentration of 10 μM in the presence of 0.3% DMSO and 10% FBS. After small molecules addition, cells are incubated for 4 days at 37° C. in a humidified incubator with 5% CO2. For IC50 value determination, serial dilutions of compounds were added to cells under the same conditions.
Assay: At the end of the incubation period, cell cultures are fixed with a 50-50 mixture (v/v) acetone-methanol for 10 minutes at −20° C., followed by rehydration in PBS for 10 minutes at room temperature. After rehydration, cells are stained with DAPI (1 μg/ml) in PBS for 10 minutes at room temperature, followed by 3 washes with PBS. After staining, DAPI fluorescence is recorded (358 nm excitation/461 nm emission) with the 96-well plate reader Molecular Devices Spectramax M3; degree of small mole-cule-dependent proliferation inhibition is calculated from raw data assuming No Serum cells value as 100%.

SMILES | inhibition at 10 µM [%] | IC50 [nM]
Cn1cnc(-c2nc(O)c3c(-c4ccccc4)c(-c4ccc(CNC(=O)OC(C)(C)C)cc4)sc3n2)c1 [drawing 1839] | 25 to 50 | 
COCCNc1nc(-c2ccccn2)nc2c1c(-c1ccccc1)nn2-c1ccccn1 [drawing 1840] | 76 to 100 | 
Oc1nc(-c2ccccn2)nc2c1c(-c1ccccc1)nn2-c1ccccn1 [drawing 1841] | 76 to 100 | 
COc1nc(-c2ccccn2)nc2c1c(-c1ccccc1)nn2-c1ccccn1 [drawing 1842] | 76 to 100 | 
Nc1nc(O)c2sc(-c3cccc(C(=O)NC4CCNC4=O)c3)cc2n1 (centres unmarked) [drawing 1844] | 0 | 
Nc1nc(O)c2sc(-c3cccc(C(=O)N4CCC(O)C4)c3)cc2n1 (centres unmarked) [drawing 1845] | 1 to 25 | 
NC(=O)C1CCCN1C(=O)c1cccc(-c2cc3nc(N)nc(O)c3s2)c1 (centres unmarked) [drawing 1846] | 51 to 75 | 
Nc1nc(O)c2sc(-c3cccc(C(=O)NCc4ncc[nH]4)c3)cc2n1 [drawing 1847] | 1 to 25 | 
Nc1nc(O)c2sc(-c3cccc(C(=O)NCc4cccc(O)n4)c3)cc2n1 [drawing 1848] | 1 to 25 | 
COC(=O)c1nc(-c2ccccn2)nc(O)c1O [drawing 1849] | 25 to 50 | 
Oc1nc(-c2ccccn2)nc2c(-c3ccccc3)c(-c3ccncc3)sc12 [drawing 1850] | 76 to 100 | 
Cn1cnc(-c2nc(O)c3sc(-c4ccncc4)c(-c4ccccc4)c3n2)c1 [drawing 1851] | 76 to 100 | 
COCC(C)Nc1nc(-c2ccccn2)nc(C(=O)NCCCc2c[nH]cn2)c1Oc1ccccc1 (centres unmarked) [drawing 1852] | 76 to 100 | 
Nc1nc(-c2ccccn2)nc(C(=O)NCCc2ccncc2)c1Oc1ccccc1 [drawing 1853] | 76 to 100 | 
COc1nc(-c2ccccn2)nc(Oc2cccc(C(F)(F)F)c2)c1OC [drawing 1854] | 76 to 100 | 
Oc1nc(-c2ccccn2)nc2c(Br)c(-c3ccccc3)sc12 [drawing 1855] | 76 to 100 | 
CC(C)(C)c1sc2c(O)nc(-c3ccccn3)nc2c1Br [drawing 1856] | 76 to 100 | 

SMILES | inhibition at 10 µM [%] | IC50 [nM]
Cc1ccc(-c2cc3nc(-c4ccccn4)nc(O)c3s2)cc1 [drawing 1857] | 76 to 100 | 
Oc1nc(-c2ccccn2)nc2cc(-c3ccccc3Cl)sc12 [drawing 1858] | 76 to 100 | 
COc1c(O)nc(-c2ccccn2)nc1Oc1cccc(C(F)(F)F)c1 [drawing 1859] | 76 to 100 | 
Oc1nc(-c2ccccn2)nc(Oc2cccc(C(F)(F)F)c2)c1O [drawing 1860] | 76 to 100 | 
Oc1nc(-c2ccccn2)nc2cc(-c3ccc(-c4ccccc4)cc3)sc12 [drawing 1861] | 76 to 100 | 
Cc1ccc(-c2csc3c(O)nc(-c4ccccn4)nc23)cc1 [drawing 1862] | 76 to 100 | 
Oc1nc(-c2ccccn2)nc2cc(-c3ccncc3)sc12 [drawing 1863] | 76 to 100 | 
Oc1nc(-c2ccccn2)nc2cc(-c3ccccc3)sc12 [drawing 1864] | 76 to 100 | 
COc1ccc(-c2cc3nc(-c4ccccn4)nc(O)c3s2)cc1 [drawing 1865] | 76 to 100 | 
Oc1nc(-c2ccccn2)nc2cc(-c3cccc(Br)c3)sc12 [drawing 1866] | 76 to 100 | 
COc1nc(-c2ccccn2)nc(Oc2cccc(C(F)(F)F)c2)c1O [drawing 1867] | 1 to 25 | 
COCCN(C)c1nc(-c2nccn2C)nc2sc(-c3ccccc3)c(-c3ccccc3)c12 [drawing 1868] | 76 to 100 | > 1000
CC(C)OCCNc1nc(-c2nccn2C)nc2sc(-c3ccccc3)c(-c3ccccc3)c12 [drawing 1869] | 76 to 100 | 
Cn1ccnc1-c1nc(NCCOC(F)(F)F)c2c(-c3ccccc3)c(-c3ccccc3)sc2n1 [drawing 1870] | 76 to 100 | 
CC(O)CNc1nc(-c2nccn2C)nc2sc(-c3ccccc3)c(-c3ccccc3)c12 (centres unmarked) [drawing 1871] | 76 to 100 | 
COCCCNc1nc(-c2nccn2C)nc2sc(-c3ccccc3)c(-c3ccccc3)c12 [drawing 1872] | 76 to 100 | 501 to 1000
